Consider 4 molecules from patent US20240077481A1, “IMPROVED TREATMENT METHODS USING DMDS FOR THE TREATMENT OF AUTOIMMUNE DISEASES, AND BIOMARKER FOR PREDICTING AND/OR OPTIMISING SAID TREATMENT METHODS” (ARES TRADING S.A., priority 2021, published 2024).

Where only a bound is given, the exact number is not on record here.

For one experiment, the system named is CD8^+ T cell. Particulars: followed by a period of repopulation (Wiendl et al., 2020); cited from earlier work.
Another experiment has as its system B cell. The following applies: followed by a period of repopulation (Wiendl et al., 2020); cited from earlier work.
The subject of a further experiment is CD4^+ T cell. Particulars: followed by a period of repopulation (Wiendl et al., 2020); cited from earlier work.
A further experiment has as its system CD19^+ cell. Particulars: Montalban et al., 2016; cited from earlier work.
Another experiment has as its system Memory B cells. Kind of experiment: MAGNIFY-MS peripheral blood immunophenotyping (flow cytometry). In kind it is in vivo, human. Particulars: month 1-12.
In another experiment the test system is plasmablast/cells. Kind of experiment: Sustained decrease of plasmablast/cells under Cladribine treatment. Format: in vivo, human. The following applies: month 3-12. The source says: According to the instant invention, it is preferably shown that treatment of said autoimmune diseases with DMDs, preferably the treatment of MS with said DMDs and especially treatment of MS with Cladribine, in an individual induces a sustained decrease of pathological memory B cells and plasmablast/cells (>−70% and >−50% from baseline respectively) from month 1-12 and month 3-12 respectively. Repopulation of these cells resulting in a increase of numbers of memory B cells and Plasma cells to <−40% and −20% respectively will illustrate a loss of efficacy serving as a retreatment marker.

For experiment [1] the following is noted: CLARITY extension, five patient groups, 3.5 mg/kg or placebo after CLARITY; cited from earlier work.
Experiment [2] deals with plasma cell numbers in the blood. The experiment can be described thus: Plasma cell response in MS patients vaccinated with Shingrix before cladribine treatment. In kind it is in vivo, human. Particulars: MS patients vaccinated twice with Shingrix, second dose 1 week before start of cladribine. The source says:
According to the instant invention, it is preferably shown that treatment of treatment of MS with Cladribine, in an individual, reduces short lived plasmablasts and CD38^+ plasma cells and the direct effect on these plasma cell subpopulations is further supported by blood data from MS patients vaccinated twice with the Shingrix vaccine before the start of treatment with the DMD Cladribine. After the second Shingrix dose given 1 week before said start of cladribine treatment, the patient raised an acute plasma cell response, and increased plasma cell numbers in the blood to the MS patient were reduced by cladribine treatment (cite vaccination patent). These findings indicate that Cladribine is able to directly affect and reduce plasmablasts and CD38+ plasma cells which are associated with disease pathology by means of autoantibody production and direct cellular toxicity, especially when occurring within the cerebrospinal fluid. What we found in MS is also important for other diseases. There are a variety of AI & Neuroinflammatory diseases where potentially plasma cells/plasmablasts are involved in the disease activity and disease course which we deem to benefit from a treatment directly acting on plasma cells, preferably cladribine treatment. […]

The subject of the next experiment is plasma cells signatures. The experiment can be described thus: Immune deconvolution signatures, CLARITY phase 3, 96 weeks. In kind it is in vivo, human. Particulars: 96 weeks after first cladribine treatment. From the text: Plasma cell signatures have weak positive, but significant, correlation with: MACT2 (Mean Active T2 Lesions), CACT2 (Cumulative Active T2 lesions), MRCULES (Mean CU Lesions), MNT1GEL (Mean New T1 Gd+ Lesions). The results are illustrated in FIG. 9.

Another experiment deals with CD27+ memory B cells. Particulars: those with NMOSDs; cited from earlier work.
Another experiment relates to CD24hiCD38hi TrB cells. The following applies: those with NMOSDs; cited from earlier work.

Take “Alemtuzumab: other disease-modifying therapy compared in the discussion”: the “CD8^+ T cell counts” value with CD8^+ T cell is given as “decrease”. The B cell counts result with B cell is listed as “decrease”. In addition, the “CD4^+ T cell counts” value in the experiment on CD4^+ T cell is given as “decrease”.

Regarding “ocrelizumab: anti-CD20 therapy targeting B cells”, the “Time of reductions in CD19^+ cell counts after treatment (as early as)” value in the experiment on CD19^+ cell is 2 weeks.

Turning to `Nc1nc(Cl)nc2c1ncn2[C@H]1C[C@H](O)[C@@H](CO)O1` [Cladribine], in the experiment on Memory B cells, the “Sustained decrease of pathological memory B cells from baseline” value is over −70%. The “Sustained decrease of plasmablast/cells from baseline” value with plasmablast/cells is over −50%. Besides, in experiment [1], the “Relapse rates and disability between all groups” value is listed as “not significantly different”. For the same molecule, the “Increased plasma cell numbers in the blood after second Shingrix dose” value in [2] is on record as “reduced”. Besides, in the experiment on plasma cells signatures, the “Ratio in plasma cells signatures vs untreated control” value was “decreased ratio”.

On to “Rituximab: anti-CD20 therapy targeting B cells”, for which, in the experiment with CD27+ memory B cells, the “number of CD27+ memory B cells” value is “lowered”. For the same molecule, the “number of CD24hiCD38hi TrB cells” value with CD24hiCD38hi TrB cells is “increased”.
